The structures appear in SMILES notation. Several values for one entry are separate records, joined by “and”; a condition that tells them apart may be missing. Identical values can stand only once. Non-standard residues stand in square brackets, D forms with d. Residues, ends and D or L forms follow the SMILES beside them. Dmt = Cc1cc(O)cc(C)c1C[C@H](N)C(=O)O

This passage reports Ki results from BindingDB's records for doi:10.1124/jpet.103.054775 (Cornell University, 2003).

Mu-type opioid receptor, sequence (P42866 whole entry): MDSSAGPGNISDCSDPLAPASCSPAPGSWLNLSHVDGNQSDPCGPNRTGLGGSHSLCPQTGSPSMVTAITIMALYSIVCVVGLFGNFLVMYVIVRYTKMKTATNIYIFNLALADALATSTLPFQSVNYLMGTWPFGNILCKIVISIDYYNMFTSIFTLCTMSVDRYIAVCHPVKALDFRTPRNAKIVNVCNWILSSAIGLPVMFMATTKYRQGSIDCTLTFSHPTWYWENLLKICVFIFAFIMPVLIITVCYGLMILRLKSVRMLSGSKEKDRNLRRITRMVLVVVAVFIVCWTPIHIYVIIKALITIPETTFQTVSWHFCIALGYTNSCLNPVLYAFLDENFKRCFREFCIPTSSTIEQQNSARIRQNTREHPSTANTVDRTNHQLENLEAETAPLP

The assay has as its target Mu-type opioid receptor (Mus musculus, UniProt P42866).
In general, Ki refers to the equilibrium dissociation constant of an inhibitor or competing ligand from its target. A low value points to higher affinity. For the molecule `NCCC[C@H](NC(=O)[C@H](Cc1ccccc1)NC(=O)[C@@H](CCCN=C(N)N)NC(=O)[C@@H](N)Cc1ccc(O)cc1)C(N)=O` [5-amino-2-{1-[1-[1-amino-2-(4-hydroxyphenyl)ethylcarboxamido]-4-amino(imino)methylamino-(1R)-butylcarboxamido]-2-phenylethylcarboxamido}pentanamide], the Ki is 1.2 nM and 10.4 nM.
Consider `NC[C@H](NC(=O)[C@H](Cc1ccccc1)NC(=O)[C@@H](CCCN=C(N)N)NC(=O)[C@@H](N)Cc1ccc(O)cc1)C(N)=O` [Tyr-d-Arg-Phe-A2pr-NH2], for which the Ki was 2.55 nM and 12.7 nM.
For `C[C@@H](NC(=O)[C@@H](N)Cc1ccc(O)cc1)C(=O)N[C@@H](Cc1ccccc1)C(=O)N[C@@H](Cc1ccccc1)C(N)=O` (H-Y[dA]FF-NH2) the value was 1.53 nM and 3.44 nM; for `Cc1cc(O)cc(C)c1C[C@H](N)C(=O)N[C@H](CCCN=C(N)N)C(=O)N[C@@H](Cc1ccccc1)C(=O)N[C@@H](CN)C(N)=O` [Dmt-d-Arg-Phe-A2pr-NH2], 0.0636 nM and 0.145 nM.
As for `Cc1cc(O)cc(C)c1C[C@H](N)C(=O)N[C@H](C)C(=O)N[C@@H](Cc1ccccc1)C(=O)N[C@@H](Cc1ccccc1)C(N)=O` [Dmt-d-Ala-Phe-Phe-NH2] (H-[Dmt][dA]FF-NH2), the Ki is 0.173 nM and 0.174 nM.
Consider `NCCCC[C@H](NC(=O)[C@H](Cc1ccccc1)NC(=O)[C@@H](CCCN=C(N)N)NC(=O)[C@@H](N)Cc1ccc(O)cc1)C(N)=O` [NSC_122222], for which the Ki was 1.69 nM and 12.9 nM.
`Cc1cc(O)cc(C)c1C[C@H](N)C(=O)N[C@H](CCCN=C(N)N)C(=O)N[C@@H](Cc1ccccc1)C(=O)N[C@@H](CCCN)C(N)=O` [Dmt-d-Arg-Phe-Orn-NH2]: the Ki was 0.151 nM and 0.161 nM.
